What was measured:
Type in all cases: cell-based
[1] = tested on: KYSE-50 esophageal cancer cell line (NRF2 gene mutation); assay: Growth suppression by dsRNA against NRF2, MTS assay; settings: KYSE-50, 72 hours, vs control dsRNA
Procedure: (§1) NRF2 gene expression was suppressed by dsRNA for the esophageal cancer cell lines that have NRF2 gene mutation (KYSE-50 and KYSE-180). Esophagus cancer cell lines were seeded into 96 well plates at 5000 cells/well, and control dsRNA (ON-TARGET plus Non-targeting Pool, Dharmacon, D-001810-10) or dsRNA against NRF2 (NRF2 dsRNA) (5′-[…]-3′ (SEQ ID NO 20) and 5′-p[…]-3′ (SEQ ID NO 21)) were introduced using Lipofectamine (Lipofectamine RNAiMax, Invitrogen). Then they were incubated at 37 degrees C. for 72 hours. Then, the number of viable cells was determined by a MTS assay for the NADH activity (CellTiter 96 Aqueous One Solution Cell Proliferation Assay, Promega).

[2] = tested on: KYSE-180 esophageal cancer cell line (NRF2 gene mutation); assay: as above; settings: KYSE-180, 72 hours, vs control dsRNA
Procedure: as §1

[3] = tested on: lung cancer cell lines with NRF2 gene abnormality (LK-2, EBC-1); assay: Suppression of proliferation by rapamycin treatment, MTS assay
Procedure: (§2) Suppression of proliferation by rapamycin treatment was examined for the esophageal cancer cell lines without NRF2 gene abnormality (KYSE-30, KYSE-140, KYSE-170, KYSE-270) and for the cell lines with NRF2 gene abnormality (KYSE-50, KYSE-70, KYSE-180). The 7 esophageal cancer cell lines were seeded onto 96 well plates at 5000 cells/well, and 0, 1, 5, and 10 nM of rapamycin were added. After incubated at 37 degrees C. for 72 hours, viable cells were counted based on the NADH activity (MTS assay, CellTiter 96 Aqueous One Solution Cell Proliferation Assay, Promega).
(§3) In addition, growth suppression effect of rapamycin treatment to the lung cancer cell lines without NRF2 gene abnormality (SQ-5, QG-56) or with NRF2 gene abnormality (LK-2, EBC-1) and to the head and neck cancer cell lines without NRF2 gene abnormality (HO-1-N-1, HSC2) or with NRF2 gene abnormality (HO-1-u-1) were also examined by similar method for the above esophageal cancer cell lines.

[4] = tested on: head and neck cancer cell lines with NRF2 gene abnormality (HO-1-u-1); assay: as above
Procedure: as §2, §3

[5] = tested on: esophageal cancer cell lines with NRF2 gene abnormality (KYSE-50, KYSE-70, KYSE-180); assay: as above; settings: rapamycin 1, 5, 10 nM, 72 hours
Procedure: as §2

Row | Compound | suppressive effect on proliferation compared with the control [1] [%] | suppressive effect on proliferation compared with the control [2] [%] | cell proliferation, ratio of cell counts, % of the control (0 nM = 100%) [3] | cell proliferation, ratio of cell counts, % of the control (0 nM = 100%) [4] | cell proliferation, ratio of cell counts, % of the control (0 nM = 100%) [5]
1 | NRF2 dsRNA: dsRNA against NRF2: 5'-UAAAGUGGCUGCUCAGAAUUU-3' (SEQ ID NO 20) and 5'-pAUUCUGAGCAGCCACUUUAUU-3' (SEQ ID NO 21) (second strand carries 5' phosphate, otherwise chemistry not given here, further chemistry not given here) | 26 | 38 |  |  | 
2 | CO[C@H]1C[C@@H]2CC[C@@H](C)[C@@](O)(O2)C(=O)C(=O)N2CCCC[C@H]2C(=O)O[C@H]([C@H](C)C[C@@H]2CC[C@@H](O)[C@H](OC)C2)CC(=O)[C@H](C)/C=C(\C)[C@@H](O)[C@@H](OC)C(=O)[C@H](C)C[C@H](C)/C=C/C=C/C=C/1C [rapamycin] |  |  | 62-70% | about 70% | about 70%
